Source: publication PMC8658016, “Identification of New Compounds with Anticonvulsant and Antinociceptive Properties in a Group of 3-substituted (2,5-dioxo-pyrrolidin-1-yl)(phenyl)-Acetamides” (International Journal of Molecular Sciences, 2021)
Where two headings read alike, the source gives them in different places.

What was measured:
[1] = Pharmacokinetic study in mice, serum and brain (LC-MS/MS); format: in vivo, mouse; conditions: for k el: non-compartmental analysis, read-out: λz (converted)
Description: The amount of the target compound in the serum and brain was determined by an LC-MS/MS system. […] The compound also very quickly penetrated to the murine brain and reached the maximum concentration in this organ at 15 min. However, the brain concentrations were lower than those in the serum. The compound was slowly eliminated from the body as its concentrations were still measurable up to 8 h. The terminal slope reflecting the elimination rate from the brain was similar to that observed in the serum. Male CD-1 mice weighting 28–33 g housed in conditions of the constant temperature with a 12:12 h light–dark cycle with free access to food and water were used in this study. The investigated compound was dissolved in sterile water for injection (Polpharma, Poland) and administered i.p. at a dose of 40 mg/kg. The mice were sacrificed by decapitation under isoflurane anesthesia. Blood samples were collected at 5, 15, 30, 60, 120, 240, and 480 min after dosing and brains were harvested at the same time points. Blood was allowed to clot at room temperature for 20 min and serum was separated by centrifugation at 3000 rpm for 10 min (Eppendorf MiniSpin centrifuge, Germany). The samples were stored at −80 °C until analysis. All animal procedures were approved by the First Ethical Committee on Animal Experimentation in Krakow, Poland (no. 270/2019). Concentrations of compound 14 in mouse brains and serum were measured by liquid chromatography tandem mass spectrometry (LC-MS/MS) method using SCIEX QTRAP 4500 triple quadrupole mass spectrometer coupled to Excion LC AC HPLC system (both from Danaher Corporation, Washington, DC, USA). Chromatographic separation was carried out on the Hypersil GoldTM C18 analytical column (2.1 × 50 mm, 3 µm, Thermo Scientific, USA) with the oven temperature set at 40 °C. […] The remaining time of elution was set at 95% B. The whole HPLC operation lasted 10 min. Electrospray ionization (ESI) in the positive ion mode was used for ion production. The tandem mass spectrometer was operated at unit resolution in the selected reaction monitoring mode (SRM), monitoring the transition of the protonated molecular ions m/z 489 to 132 (CE = 65 eV) and m/z 489 to 231 (CE = 29 eV) for compound 14 (first pair was used as a quantifier and the second for the identity verification qualifier) and m/z 436 to 235 (CE = 42 eV) for an internal standard (valsartan). The mass spectrometric conditions were optimized by continuous infusion of the standard solution at the rate of 7 μL/min using a Harvard infusion pump. The ion source temperature was maintained at 450 °C and the ion spray voltage was set at 5500 V. The curtain gas (CUR) was set at 40 psi and the collision gas (CAD) at medium. Data acquisition and processing were accomplished using the Analyst version 1.7 software. The calibration curves were constructed by plotting the ratio of the peak area of the studied compound to internal standard (IS) versus drug concentration and generated by weighted (1/x·x) linear regression analysis. The validated quantitation ranges for this method were within the expected concentration ranges, namely, from 0.1 to 20 µg/mL of serum and from 0.05 to 10 µg/g of brain tissue with accuracy from 93.73 to 104.29% and from 88.33 to 107% for serum and brain, respectively. No significant matrix effect was observed and there were no stability-related problems during the routine analysis of the samples. The brains were homogenized in distilled water at the ratio of 1:4 (w/v) with a tissue homogenizer LabGEN 125 (Cole-Parmer, Vernon Hills, IL, USA). […] Serum supernatant was additionally diluted 10 times with the deproteinization solution. Then, brain or serum supernatants were transferred into the autosampler vials. The autosampler temperature was maintained at 15 °C and a sample volume of 2 μL was injected into the LC-MS/MS system.

[2] = test system: hepatoma HepG2 cells; test: Hepatotoxicity, HepG2 viability (MTS); format: cell-based; conditions: 72 h; viability affected at 100 µM only
[3] = biological target: T1, CYP2D6 (Homo sapiens, UniProt P10635); test: CYP2D6 P450-Glo luminescent assay; format: in vitro ADME; conditions: 1 and 10 µM
T1 construct: purchased Promega (Madison, WI, USA)

[4] = test system: Cav1.2 channel (dihydropyridine site, antagonist radioligand); test: Radioligand binding, Cav1.2 channel (dihydropyridine site); conditions: rat cerebral cortex
[5] = test system: mice; test: Timed ivPTZ seizure threshold test; format: in vivo, mouse
Excerpt: The timed ivPTZ test was employed to evaluate the acute effect of compound 14 on the seizure thresholds for (1) the first myoclonic twitch, (2) generalized clonic seizure with the loss of the righting reflex, and (3) forelimb tonus. The experimental procedure has been described in detail elsewhere.
In this study, we used adult male Swiss albino mice (Kołacz, Laboratory Animals Breeding, Warszawa, Poland) license no. 106/2019 (Local Ethical Committee in Lublin). In studies assessing the acute effect of compound 14 on neuromuscular strength, body temperature, and seizure threshold, compound 14 was suspended in a 1% solution of Tween 80 and administered i.p., 30 min before the tests.
The timed ivPTZ test was employed to evaluate the acute effect of compound 14 on the seizure thresholds for (1) the first myoclonic twitch, (2) generalized clonic seizure with loss of righting reflex, and (3) forelimb tonus. The experimental procedure was described in detail elsewhere. The changes in temperature were recorded using an electronic thermometer (ThermoWorks, Alpine, UT, USA). Mice were gently restrained and a rectal probe was inserted to a depth of ~2 cm into the rectum.
Figure 2 Acute effect of compound 14 on the threshold for the first myoclonic twitch (panel (A)), generalized clonus (panel (B)), and forelimb tonus (panel (C)) in the ivPTZ seizure threshold test in mice. Compound 14 was administered i.p. 30 min before the seizure test. Control animals received vehicle only. Each experimental group consisted of 9–11 animals. Each bar represents the mean (mg/kg PTZ) + S.E.M. * p < 0.05; ** p < 0.01 vs. the control group (one-way ANOVA, followed by Dunnett’s post hoc test, GraphPad Prism 8.0.1).

[6] = male, CD-1, mouse, ip, brain, mice, 40 mg/kg i.p.
[7] = male, CD-1, mouse, ip, serum, mice, 40 mg/kg i.p.
[8] = 30 mg/kg i.p., 30 min before test

T1 sequence (P10635 whole entry): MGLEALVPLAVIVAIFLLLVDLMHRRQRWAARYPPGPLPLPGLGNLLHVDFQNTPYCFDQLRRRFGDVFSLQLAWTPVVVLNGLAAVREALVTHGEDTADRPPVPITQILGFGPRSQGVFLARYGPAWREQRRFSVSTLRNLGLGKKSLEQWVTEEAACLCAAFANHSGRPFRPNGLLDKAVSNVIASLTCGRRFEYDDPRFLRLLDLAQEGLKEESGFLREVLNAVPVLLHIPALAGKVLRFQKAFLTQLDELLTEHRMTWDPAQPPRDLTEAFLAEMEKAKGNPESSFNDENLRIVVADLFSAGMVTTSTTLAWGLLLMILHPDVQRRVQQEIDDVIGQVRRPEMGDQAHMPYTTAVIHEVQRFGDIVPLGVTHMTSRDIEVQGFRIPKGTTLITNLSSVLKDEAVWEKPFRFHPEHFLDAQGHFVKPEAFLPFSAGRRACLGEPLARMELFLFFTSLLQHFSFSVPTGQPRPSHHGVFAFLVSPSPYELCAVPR

SMILES: CN(C)C1CC(=O)N(C(C(=O)N2CCN(c3cccc(C(F)(F)F)c3)CC2)c2ccccc2)C1=O.Cl (stereo not drawn) [Compound 14, 3-(Dimethylamino)-1-(2-oxo-1-phenyl-2-(4-(3-(trifluoromethyl)phenyl)-piperazin-1-yl)ethyl)pyrrolidine-2,5-dione hydrochloride]
- AUC0-∞ ([1]; brain, mice, 40 mg/kg i.p.): 413.17 µg⋅min/mL(g)
- Cmax ([1]; brain, mice, 40 mg/kg i.p.): 5.32 µg/mL(g)
- t0.5λz ([1]; brain, mice, 40 mg/kg i.p.): 66.14 min
- Kp ([1]; male, CD-1, mouse, brain and serum, ip, mice, 40 mg/kg i.p., read-out: brain-to-serum AUC ratio): ≤ 0.3
- concentration at 30 min ([1]; male, CD-1, mouse, brain, ip, 40 mg/kg, mice i.p., calculated for the free base, read-out: C30 min. in the brain): 7.2 µM
- Cmax ([1]; male, CD-1, mouse, brain, ip, 40 mg/kg, mice i.p., calculated for the free base, read-out: Cmax in the brain): 10.9 µM
- concentration at 30 min ([1]; male, CD-1, mouse, brain, ip, mice, 40 mg/kg i.p., read-out: brain level 30 min post-dose): 3500 ± 990 ng/g
- MRT [1, 6]: 89.2 min
- Tmax [1, 6]: 15 min
- k el [1, 6]: 0.000183 s⁻¹
- CL/F [1, 7]: 27 mL/min/kg
- MRT [1, 7]: 93.5 min
- Tmax [1, 7]: 5 min
- k el [1, 7]: 0.000183 s⁻¹
- concentration at 30 min ([1]; male, CD-1, mouse, serum, ip, 40 mg/kg, mice i.p., calculated for the free base, read-out: C30 min. in serum): 24.3 µM
- Cmax ([1]; male, CD-1, mouse, serum, ip, 40 mg/kg, mice i.p., calculated for the free base, read-out: Cmax in serum): 41.1 µM
- brain concentration 15 min after administration (highest) ([1]; mice, 40 mg/kg i.p.): 5.32 ± 0.54 µg/g tissue
- AUC0-∞ ([1]; serum, mice, 40 mg/kg i.p.): 1451.22 µg⋅min/mL(g)
- Cmax ([1]; serum, mice, 40 mg/kg i.p.): 20.06 µg/mL(g)
- V/F ([1]; serum, mice, 40 mg/kg i.p.): 2.57 L/kg
- t0.5λz ([1]; serum, mice, 40 mg/kg i.p.): 64.65 min
- hepatotoxicity (HepG2 viability) [2]: generally non-toxic
- effect on CYP2D6 activity [3]: significant activation
- % Inhibition of Control-Specific Binding, Cav1.2 channel (dihydropyridine site, antagonist radioligand) ([4]; 10 µM): 6.0%
- % Inhibition of Control-Specific Binding, Cav1.2 channel (dihydropyridine site, antagonist radioligand) ([4]; 50 µM): 75.4%
- effect on threshold for generalized clonus (ivPTZ) [5, 8]: did not significantly affect
- effect on threshold for the first myoclonic twitch (ivPTZ) [5, 8]: did not significantly affect
- effect on threshold for generalized clonic seizure (ivPTZ) ([5]; 60 mg/kg i.p., 30 min before test, p < 0.01): slightly increased
- effect on threshold for the first myoclonic twitch (ivPTZ) ([5]; 60 mg/kg i.p., 30 min before test, p < 0.05): slightly increased
- effect on threshold for forelimb tonic extension (ivPTZ) ([5]; 30 and 60 mg/kg i.p.): No statistically significant changes
